The results in this text go back to PubChem BioAssay (NCI).

For orientation: TGI means the concentration giving total growth inhibition.

Some test systems named below: HL-60(TB) leukemia; UO-31 renal; MDA-N; DU-145 prostate; OVCAR-8 ovarian; EKVX NSCLC; HOP-62 NSCLC; SW-620 colon; CCRF-CEM leukemia; SF-295 CNS; ACHN renal; M14 melanoma; HT29 colon; RPMI-8226 leukemia; KM12 colon; NCI-H23 lung; SF-268 CNS; SNB-75 CNS.
What all share (assay): DTP human tumour cell line panel, 48 h

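Tested at 5 concentrations; 48 h exposure; 96-well plates; endpoints linearly interpolated, else capped at highest concentration. TGI is the concentration that stops growth completely.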

As to `CCOC(=O)CCC(NC(=O)c1ccc(OCc2ccc3nc(-c4ccccc4)c(Cl)nc3c2)cc1)C(=O)OCC` (centres undefined), the TGI with HL-60(TB) leukemia is over 31.6 µM; with UO-31 renal it was over 31.6 µM; with MDA-N, over 100 µM; in the experiment on DU-145 prostate, over 31.6 µM; in the experiment on OVCAR-8 ovarian, 25.3 µM; in the experiment on EKVX NSCLC, over 31.6 µM. Besides, the TGI with HOP-62 NSCLC, in the experiment with SW-620 colon, in the experiment with CCRF-CEM leukemia, in the experiment on SF-295 CNS, in the experiment on ACHN renal and with M14 melanoma was over 31.6 µM each time. Besides, the TGI with HT29 colon is over 31.6 µM; in the experiment with RPMI-8226 leukemia it was over 31.6 µM; in the experiment with KM12 colon it was over 31.6 µM; in the experiment on NCI-H23 lung, over 31.6 µM; with SF-268 CNS it was 28.1 µM; in the experiment with SNB-75 CNS, 30.3 µM.
Regarding `CCOC(=O)C(SCCO)C(C(=O)OCC)n1ccc(=O)[nH]c1=O` (centres undefined), the TGI with HL-60(TB) leukemia is 12 µM; with UO-31 renal, over 100 µM; in the experiment with MDA-N, 97.8 µM; in the experiment on DU-145 prostate, over 100 µM; in the experiment with OVCAR-8 ovarian, over 57.4 µM; with EKVX NSCLC, over 100 µM. Besides, the TGI in the experiment on HOP-62 NSCLC was over 96.6 µM; in the experiment with SW-620 colon, 46.8 µM; in the experiment on CCRF-CEM leukemia, 10.5 µM; in the experiment on SF-295 CNS it was over 100 µM; with ACHN renal, over 66.6 µM; in the experiment with M14 melanoma it was over 90.5 µM. For the same compound, the TGI is 83.3 µM in the experiment with HT29 colon; 47.8 µM in the experiment with RPMI-8226 leukemia; over 87.4 µM in the experiment with KM12 colon; over 100 µM in the experiment on NCI-H23 lung; over 100 µM in the experiment on SF-268 CNS; over 95.9 µM with SNB-75 CNS.
`COI1NC(=O)c2ccccc21`: the TGI with HL-60(TB) leukemia, with UO-31 renal, with MDA-N, in the experiment on DU-145 prostate, with OVCAR-8 ovarian and in the experiment on EKVX NSCLC was over 100 µM each time. In addition, the TGI in the experiment with HOP-62 NSCLC, in the experiment on SW-620 colon, in the experiment with CCRF-CEM leukemia, with SF-295 CNS, with ACHN renal and with M14 melanoma was over 100 µM throughout. Further, the TGI in the experiment on HT29 colon, with RPMI-8226 leukemia, in the experiment with KM12 colon, with NCI-H23 lung, with SF-268 CNS and in the experiment with SNB-75 CNS was over 100 µM each time.
On to `Nc1onc2c1Cc1c(noc1N)-c1ccccc1-2`, for which the TGI in the experiment on HL-60(TB) leukemia was 49.7 µM; in the experiment on UO-31 renal, over 100 µM; in the experiment with MDA-N it was over 100 µM; with DU-145 prostate it was over 100 µM; in the experiment on OVCAR-8 ovarian, over 100 µM; in the experiment on EKVX NSCLC it was 66.1 µM. In addition, the TGI in the experiment with HOP-62 NSCLC, in the experiment on SW-620 colon, with CCRF-CEM leukemia, with SF-295 CNS, with ACHN renal and in the experiment on M14 melanoma was over 100 µM throughout. For the same compound, the TGI was over 100 µM in the experiment on HT29 colon; over 100 µM with RPMI-8226 leukemia; over 100 µM in the experiment on KM12 colon; over 100 µM with NCI-H23 lung; over 100 µM in the experiment with SF-268 CNS; 95.1 µM in the experiment on SNB-75 CNS.
Regarding `O=[N+]([O-])c1ccc(N/N=C/c2ccc(OCCCCCCCCCCCO)cc2)c([N+](=O)[O-])c1`, the TGI is 31.2 µM with HL-60(TB) leukemia; 36.1 µM in the experiment on UO-31 renal; 13 µM in the experiment on MDA-N; over 95.9 µM in the experiment on DU-145 prostate; 9.86 µM in the experiment with OVCAR-8 ovarian; 52.1 µM in the experiment with EKVX NSCLC. The TGI in the experiment on HOP-62 NSCLC was 19.6 µM; with SW-620 colon, over 100 µM; in the experiment on CCRF-CEM leukemia, over 44.5 µM; with SF-295 CNS, 9.6 µM; in the experiment on ACHN renal it was over 71.7 µM; with M14 melanoma it was 3.22 µM. The TGI was over 100 µM in the experiment with HT29 colon; over 100 µM with RPMI-8226 leukemia; 7.84 µM in the experiment on KM12 colon; 45.8 µM in the experiment with NCI-H23 lung; 7.62 µM in the experiment on SF-268 CNS; 4.27 µM in the experiment on SNB-75 CNS.
Take `Cc1ccccc1S(=O)(=O)Nn1cnc2ccc(S(=O)(=O)Nc3ccc(Cl)cc3)cc2c1=O`: the TGI in the experiment with HL-60(TB) leukemia, with UO-31 renal, in the experiment on MDA-N, with DU-145 prostate, in the experiment on OVCAR-8 ovarian and in the experiment with EKVX NSCLC was over 100 µM in each case. The TGI in the experiment on HOP-62 NSCLC, in the experiment with SW-620 colon, in the experiment on CCRF-CEM leukemia, in the experiment with SF-295 CNS, in the experiment on ACHN renal and with M14 melanoma was over 100 µM throughout. For the same compound, the TGI with HT29 colon, in the experiment on RPMI-8226 leukemia, in the experiment on KM12 colon, in the experiment on NCI-H23 lung, in the experiment with SF-268 CNS and in the experiment with SNB-75 CNS was over 100 µM throughout.
In the case of `CC1=C(C(=O)Nc2ccccc2)C2(CCCCC2)C(C#N)=C(SCC(=O)Nc2ccc(Br)cc2)N1`, the TGI in the experiment on HL-60(TB) leukemia was 13.7 µM; in the experiment with UO-31 renal, 2.76 µM; in the experiment on MDA-N, 17.2 µM; in the experiment on DU-145 prostate, over 100 µM; in the experiment with OVCAR-8 ovarian it was 34.9 µM; in the experiment with EKVX NSCLC, 7.81 µM. The TGI was 32.6 µM in the experiment on HOP-62 NSCLC; over 100 µM in the experiment with SW-620 colon; 7.02 µM with CCRF-CEM leukemia; 28.9 µM in the experiment on SF-295 CNS; 19.8 µM with ACHN renal; 10.9 µM in the experiment on M14 melanoma. The TGI in the experiment on HT29 colon was 8.53 µM; in the experiment on RPMI-8226 leukemia it was 7.11 µM; with KM12 colon, over 26 µM; in the experiment with NCI-H23 lung, 23.3 µM; in the experiment with SF-268 CNS, 8.74 µM; with SNB-75 CNS it was 30.3 µM.
For the compound `CCCCCCCCCCCCCCCCCCN(C)CC(COP(=O)([O-])OCC[N+](C)(C)C)OC` (centres undefined), the TGI is 11.1 µM in the experiment on HL-60(TB) leukemia; 48.8 µM with UO-31 renal; over 100 µM in the experiment on MDA-N; over 100 µM in the experiment with DU-145 prostate; 44.8 µM in the experiment with OVCAR-8 ovarian; 48.2 µM in the experiment on EKVX NSCLC. Moreover, the TGI in the experiment with HOP-62 NSCLC came out at 28.4 µM; with SW-620 colon, 47 µM; in the experiment with CCRF-CEM leukemia, 24.3 µM; in the experiment with SF-295 CNS, 23.9 µM; in the experiment on ACHN renal it was 48.8 µM; in the experiment with M14 melanoma, 29.6 µM. Besides, the TGI with HT29 colon is 15 µM; with RPMI-8226 leukemia, 18.6 µM; in the experiment with KM12 colon, 7.71 µM; in the experiment with NCI-H23 lung, 49.3 µM; in the experiment with SF-268 CNS, 27.5 µM; with SNB-75 CNS it was 15.6 µM.
